These compounds were tested on JAK1-dependent STAT6 phosphorylation downstream of IL-13 stimulation in TF-1 human erythroleukemia cells (assay: cells). Conditions: TF-1, read-out: IL-13-pSTAT6 IC50.

IC50	Compound
34.7 nM	CN1CCC(N(C)C(=O)c2ccc(Nc3nc4c(C5=CCN(C(=O)C6CCCCC6)CC5)cccn4n3)cc2)CC1 [Example 2-348, 4-[[8-[1-(cyclohexanecarbonyl)-3,6-dihydro-2H-pyridin-4-yl]-[1,2,4]triazolo[1,5-a]pyridin-2-yl]amino]-N-methyl-N-(1-methyl-4-piperidyl)benzamide]
719 nM	CN1CCC(N(C)C(=O)c2ccc(Nc3nc4c(C5=CCN(C(=O)[C@H]6CC[C@H](C#N)CC6)CC5)cccn4n3)cc2)CC1 [Example 2-350, 4-[[8-[1-(4-cyanocyclohexanecarbonyl)-3,6-dihydro-2H-pyridin-4-yl]-[1,2,4]triazolo[1,5-a]pyridin-2-yl]amino]-N-methyl-N-(1-methyl-4-piperidyl)benzamide]
52.6 nM	CN1CCC(N(C)C(=O)c2ccc(Nc3nc4c(C5=CCN(C(=O)OCc6ccccc6)CC5)cccn4n3)cc2)CC1 [Example 2-351, benzyl 4-[2-[4-[methyl-(1-methyl-4-piperidyl)carbamoyl]anilino]-[1,2,4]triazolo[1,5-a]pyridin-8-yl]-3,6-dihydro-2H-pyridine-1-carboxylate]
32.7 nM	CN1CCC(N(C)C(=O)c2ccc(Nc3nc4c(C5=CCN(C(=O)OCC6CC6)CC5)cccn4n3)cc2)CC1 [Example 2-353, cyclopropylmethyl 4-[2-[4-[methyl-(1-methyl-4-piperidyl)carbamoyl]anilino]-[1,2,4]triazolo[1,5-a]pyridin-8-yl]-3,6-dihydro-2H-pyridine-1-carboxylate]
41.3 nM	CCOC(=O)N1CC=C(c2cccn3nc(Nc4ccc(C(=O)N5CCC(c6ccccn6)CC5)cc4)nc23)CC1 [Example 2-358, ethyl 4-[2-[4-[4-(2-pyridyl)piperidine-1-carbonyl]anilino]-[1,2,4]triazolo[1,5-a]pyridin-8-yl]-3,6-dihydro-2H-pyridine-1-carboxylate]
411 nM	CCOC(=O)N1CC=C(c2cccn3nc(Nc4ccc(C(=O)NC5CCNCC5)cc4)nc23)CC1 [Example 2-360, ethyl 4-[2-[4-(4-piperidylcarbamoyl)anilino]-[1,2,4]triazolo[1,5-a]pyridin-8-yl]-3,6-dihydro-2H-pyridine-1-carboxylate]
8.9 nM	CCOC(=O)N1CC=C(c2cccn3nc(Nc4ccc(C(=O)N(C)Cc5ccncc5)cc4)nc23)CC1 [Example 2-361, ethyl 4-[2-[4-[methyl(4-pyridylmethyl)carbamoyl]anilino]-[1,2,4]triazolo[1,5-a]pyridin-8-yl]-3,6-dihydro-2H-pyridine-1-carboxylate]
229 nM	CCOC(=O)N1CC=C(c2cccn3nc(Nc4ccc(C(=O)NCCC5CCCN5)cc4)nc23)CC1 (stereo not shown) [Example 2-362, ethyl 4-[2-[4-(2-pyrrolidin-2-ylethylcarbamoyl)anilino]-[1,2,4]triazolo[1,5-a]pyridin-8-yl]-3,6-dihydro-2H-pyridine-1-carboxylate]
296 nM	CCOC(=O)N1CC=C(c2cccn3nc(Nc4ccc(C(=O)N5CC6(CCNC6)C5)cc4)nc23)CC1 [Example 2-372, ethyl 4-[2-[4-(2,7-diazaspiro[3.4]octane-2-carbonyl)anilino]-[1,2,4]triazolo[1,5-a]pyridin-8-yl]-3,6-dihydro-2H-pyridine-1-carboxylate]
62.5 nM	CCOC(=O)N1CC=C(c2cccn3nc(Nc4ccc(C(=O)N(C)CCN)cc4)nc23)CC1 [Example 2-374, ethyl 4-[2-[4-[2-aminoethyl(methyl)carbamoyl]anilino]-[1,2,4]triazolo[1,5-a]pyridin-8-yl]-3,6-dihydro-2H-pyridine-1-carboxylate]
55.5 nM	O=C(CCC(F)(F)F)N1CC=C(c2cccn3nc(Nc4ccc(C(=O)N5CCC6(CCCN6)C5)cc4)nc23)CC1 (stereo not shown) [Example 2-377, 1-[4-[2-[4-(1,7-diazaspiro[4.4]nonane-7-carbonyl)anilino]-[1,2,4]triazolo[1,5-a]pyridin-8-yl]-3,6-dihydro-2H-pyridin-1-yl]-4,4,4-trifluoro-butan-1-one]
238 nM	O=C(CCC(F)(F)F)N1CC=C(c2cccn3nc(Nc4ccc(C(=O)N5CCC6(CCCCN6)C5)cc4)nc23)CC1 (stereo not shown) [Example 2-378, 1-[4-[2-[4-(2,6-diazaspiro[4.5]decane-2-carbonyl)anilino]-[1,2,4]triazolo[1,5-a]pyridin-8-yl]-3,6-dihydro-2H-pyridin-1-yl]-4,4,4-trifluoro-butan-1-one]
282 nM	O=C(CCC(F)(F)F)N1CC=C(c2cccn3nc(Nc4ccc(C(=O)N5CCC6(CNC6)C5)cc4)nc23)CC1 [Example 2-379, 1-[4-[2-[4-(2,6-diazaspiro[3,4]octane-6-carbonyl)anilino]-[1,2,4]triazolo[1,5-a]pyridin-8-yl]-3,6-dihydro-2H-pyridin-1-yl]-4,4,4-trifluoro-butan-1-one]
38.4 nM	O=C(CCC(F)(F)F)N1CC=C(c2cccn3nc(Nc4ccc(C(=O)N5CCC6(CC5)CNCCO6)cc4)nc23)CC1 [Example 2-380, 4,4,4-trifluoro-1-[4-[2-[4-(1-oxa-4,9-diazaspiro[5.5]undecane-9-carbonyl)anilino]-[1,2,4]triazolo[1,5-a]pyridin-8-yl]-3,6-dihydro-2H-pyridin-1-yl]butan-1-one]
376 nM	O=C(CCC(F)(F)F)N1CC=C(c2cccn3nc(Nc4ccc(C(=O)N5CCCC6(CCNCC6)C5)cc4)nc23)CC1 [Example 2-382, 1-[4-[2-[4-(2,9-diazaspiro[5.5]undecane-2-carbonyl)anilino]-[1,2,4]triazolo[1,5-a]pyridin-8-yl]-3,6-dihydro-2H-pyridin-1-yl]-4,4,4-trifluoro-butan-1-one]
9 nM	O=C(CCC(F)(F)F)N1CC=C(c2cccn3nc(Nc4ccc(C(=O)N5CCCC6(CCCCN6)C5)cc4)nc23)CC1 (stereo not shown) [Example 2-383, 1-[4-[2-[4-(1,8-diazaspiro[5.5]undecane-8-carbonyl)anilino]-[1,2,4]triazolo[1,5-a]pyridin-8-yl]-3,6-dihydro-2H-pyridin-1-yl]-4,4,4-trifluoro-butan-1-one]
93 nM	O=C(CCC(F)(F)F)N1CC=C(c2cccn3nc(Nc4ccc(C(=O)N5CCCC6(CCCN6)CC5)cc4)nc23)CC1 (stereo not shown) [Example 2-384, 1-[4-[2-[4-(1,9-diazaspiro[4.6]undecane-9-carbonyl)anilino]-[1,2,4]triazolo[1,5-a]pyridin-8-yl]-3,6-dihydro-2H-pyridin-1-yl]-4,4,4-trifluoro-butan-1-one]
174 nM	O=C(NCC1CCCCN1)c1ccc(Nc2nc3c(C4=CCN(C(=O)CCC(F)(F)F)CC4)cccn3n2)cc1 (stereo not shown) [Example 2-385, N-(2-piperidylmethyl)-4-[[8-[1-(4,4,4-trifluorobutanoyl)-3,6-dihydro-2H-pyridin-4-yl]-[1,2,4]triazolo[1,5-a]pyridin-2-yl]amino]benzamide]
155 nM	O=C(CCC(F)(F)F)N1CC=C(c2cccn3nc(Nc4ccc(C(=O)N5CCC6CNCC65)cc4)nc23)CC1 (stereo not shown) [Example 2-386, 1-[4-[2-[4-(3,3a,4,5,6,6a-hexahydro-2H-pyrrolo[2,3-c]pyrrole-1-carbonyl)anilino]-[1,2,4]triazolo[1,5-a]pyridin-8-yl]-3,6-dihydro-2H-pyridin-1-yl]-4,4,4-trifluoro-butan-1-one]
